The molecules below were run against Biotin carboxylase (Escherichia coli (strain K12), UniProt P24182) (assay: ACCase-Coupled Enzyme Assay). Settings: pH 8; 23 °C.
Protocol: To each well of the plate consisting of 50 mM Hepes (pH 8.0), 100 mM KCl, 1 mM TCEP, 5 mM MgCl2, 0.1 mg/mL BSA, 0.005% (vol/vol) Tween 20, 30 nM E. coli BC, 50 nM E. coli CT, 50 nM biotinylated E. coli BCCP, and 0.5 unit/mL E. coli purine nucleoside phosphorylase was added. […] Reaction progress was monitored by the increase in absorbance at 360 nm. […] Inhibition data were fit to the standard IC50 equation.
Work on `Cc1nc2nc(N)[nH]c2c(O)c1Cc1ccccc1` [amino imidazo-pyridinone, 8] yielded an IC50 of 2.4 µM. In the case of `Cc1nc(-c2ccnc(N)n2)cs1` [amino pyrimidine, 6], the IC50 is reported as 59.3 µM. In the case of `Nc1nccc(C(=O)c2ccccc2)n1` [amino pyrimidine, 7], the IC50 is reported as 8.2 µM. In the case of `CCCCN(Cc1ccccc1)C(=O)c1cnc(N)o1` [amino-oxazole, 2b], the IC50 is reported as 1.29 µM. For `Cc1ccccc1CN(Cc1ccc2c(c1)OCCO2)C(=O)c1cnc(N)o1` [amino-oxazole, 2d], the IC50 was 0.007 µM.

Source: BindingDB's records for doi:10.1021/cb9000102 (Pfizer, 2009)
